Measurements published in PubChem BioAssay (NCI).
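Growth conditions: 96-well plates. Treatment: test compound, 48 hours, 5 concentrations. Analysis: linear interpolation between bracketing concentrations; unreached endpoints set to highest concentration. GI50 = concentration required for 50% inhibition of growth. TGI marks complete inhibition of growth.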

Columns and labels:
Assay in all cases: DTP human tumour cell line panel, 48 h
[1] = test system: SNB-75 CNS
[2] = test system: IGROV1 ovarian
[3] = test system: HCT-15 colon
[4] = test system: SK-MEL-2 melanoma
[5] = test system: EKVX NSCLC
[6] = test system: OVCAR-8 ovarian
[7] = test system: COLO 205 colon
[8] = test system: U251 CNS
[9] = test system: SK-OV-3 ovarian
[10] = test system: LOX IMVI melanoma

| Structure (SMILES) | GI50 [1] | TGI [1] | GI50 [2] | TGI [2] | GI50 [3] | TGI [3] | GI50 [4] | TGI [4] | GI50 [5] | TGI [5] | GI50 [6] | TGI [6] | GI50 [7] | TGI [7] | GI50 [8] | TGI [8] | GI50 [9] | TGI [9] | GI50 [10] | TGI [10] |
| --- | --- | --- | --- | --- | --- | --- | --- | --- | --- | --- | --- | --- | --- | --- | --- | --- | --- | --- | --- | --- |
| CCOC(=O)c1sc(Nc2ccc(Cl)cc2)nc1C | 1.43 µM | 4.24 µM | 1.52 µM | 4.26 µM | 1.62 µM | 3.92 µM | 2.1 µM | 4.2 µM | 0.969 µM | 5.52 µM | 2.89 µM | 7.73 µM | 1.83 µM | 3.59 µM | 1.96 µM | 4.3 µM | 2.44 µM | 6.8 µM | 1.49 µM | 2.86 µM |
| COc1ccc(NC(=O)c2sc3nc(C)c(C(O)c4ccccc4)cc3c2N)cc1 (stereo not given) | 1.49 µM | 7.22 µM | 3.63 µM | > 100 µM | 1.44 µM | > 100 µM | 4.88 µM | 85.7 µM | 4.38 µM | > 100 µM | 4.01 µM | > 100 µM | 3.08 µM | 13.9 µM | 3.58 µM | > 100 µM | 4.59 µM | > 100 µM | 4.25 µM | > 100 µM |
| CCOC(=O)/C(=C/c1ccc(C#N)cc1)N(CC)CC |  | > 100 µM |  | > 100 µM |  | > 100 µM |  | > 100 µM |  | > 100 µM |  | > 100 µM |  | > 100 µM |  | > 100 µM |  | > 100 µM |  | > 100 µM |
| N.N.NCCCCN.O=C([O-])C1(C(=O)[O-])CCC1.O=C([O-])C1(C(=O)[O-])CCC1.[Pt+4].[Pt+4] | > 100 µM | > 100 µM | > 100 µM | > 100 µM | > 100 µM | > 100 µM | > 100 µM | > 100 µM | > 100 µM | > 100 µM | > 100 µM | > 100 µM | > 100 µM | > 100 µM | > 100 µM | > 100 µM | > 100 µM | > 100 µM | > 100 µM | > 100 µM |
| NCCNC(=S)S |  | > 100 µM |  | > 100 µM |  | > 100 µM |  | > 100 µM |  | > 100 µM |  | > 100 µM |  | > 100 µM |  | > 100 µM |  | > 100 µM |  | > 100 µM |
| O=C1OC(O)C(Oc2ccc(Cl)cc2)=C1Cl (stereo not given) |  | > 100 µM |  | > 100 µM |  | > 100 µM |  | > 100 µM |  | > 100 µM |  | > 100 µM |  | > 100 µM |  | > 100 µM |  | > 100 µM |  | > 100 µM |
| COC1=CC(c2ccc[nH]2)=N/C1=C\c1[nH]c(C)c(C(=O)CCCCC(=O)Nc2ccccc2)c1C | 2.8 µM | 11.4 µM | 0.811 µM | 2.07 µM | 0.679 µM | 2.44 µM | 11.9 µM | 26.7 µM | 2.64 µM | 19.8 µM | 2.02 µM | 4.82 µM | 1.75 µM | 3.8 µM | 1.29 µM | 2.56 µM | 18.3 µM | 40.1 µM | 1.13 µM | 2.34 µM |
| CS(=O)(=O)Nc1ccc(Nc2c3ccccc3nc3ccccc23)cc1 |  | 19.1 µM |  | 18.9 µM |  | 23.5 µM |  | 16.1 µM |  | 29.6 µM |  | 32.6 µM |  | 21 µM |  | 13.8 µM |  | 16.1 µM |  | 13.9 µM |
